A value given as a limit tells only on which side of the number the result lay.

In one series the target is B-Raf V600E (Homo sapiens, UniProt P15056, V600E). Nature of the series: B-Raf V600E biochemical kinase inhibition (AlphaScreen, biotin-MEK1 substrate). The settings on record: 100 μM ATP. Here is the method:
Compounds to be tested are diluted in dimethyl sulfoxide to a concentration of 0.1 mM. These are serially diluted 15 μL into 30 μL of dimethyl sulfoxide seven times in 96 well plates for a total of 8 dilution points, and for each dilution point 1 μL is added to a well of an assay plate. […] The reaction is started with addition of 10 μL of 200 μM ATP (i.e. final 100 μM ATP). […] The plates are incubated for 3 hours at room temperature and read on Envision reader (Perkin Elmer). […] The signal vs. compound concentration is used to determine the IC50.

Series [1] can be described thus: Relative solubility by turbidity in aqueous buffers of varying pH. The settings on record: for turbidity threshold (L, M, H) 7.4: HEPES pH 7.4; for turbidity threshold (L, M, H) 4.5: SIF pH 4.5; for turbidity threshold (L, M, H) 6.8: SIF pH 6.8; for turbidity threshold (L, M, H) 1.4: buffer pH 1.4 (SGF). The format is physicochemical. On the procedure: As an indication of relative solubility, the turbidity of compounds in aqueous solutions is assessed. To assess possible compound properties in different physiological compartments, such as stomach, intestine, and blood, a series of aqueous buffers with varying pH is used. Thus each compound is diluted into four different physiologically relevant buffers and solution turbidity is measured by spectrophotometry.
Compounds are dissolved at a concentration of 25 mM in dimethyl sulfoxide, then serially diluted 1:1 into a 96 well plate, diluting 10 times in pure dimethyl sulfoxide, with the final well of each row a dimethyl sulfoxide blank. In an assay plate, 99 μL of appropriate buffer is added to each well, and 1 μL of each sample dilution is added to the buffer, achieving a range of final total concentrations in aqueous solutions having different pH. The buffers used are Simulated Gastric Fluid (SGF-pH 1.5) 0.5M NaCl, pH 1.5; Simulated Intestinal fluid (SIF-pH 4.5 and pH 6.8) 0.05M NaH2PO4, pH 4.5 and 6.8; and Hepes Buffer (HEPES-pH 7.4) 10 mM HEPES, 150 mM NaCl, pH 7.4. Control compounds pyrene, estriol and propranolol HCl are also assessed. Plates are spun and then mixed for 1 minute, and the absorbance is read using a Tecan Safire II to read wavelengths in the visible range (490, 535, and 650 nm) at four locations per well, reflecting the degree of turbidity present. The average optical density for each wavelength in each well is graphed vs. compound concentration, and the concentration at which the curve crosses a threshold O.D. of 0.01 for each wavelength is reported as the endpoint turbidity assay result. The average of the three wavelengths is used to compare turbidity of compounds. Compounds are considered to have low solubility if the threshold concentration is <31.3 04, moderate solubility if the threshold concentration is 31.3 μM to 250 μM, and high solubility if the threshold concentration is >250 μM.

A further series deals with CYP2C19 (Homo sapiens, UniProt P33261). Nature of the series: CYP2C19 inhibition (fluorescent substrate). In kind it is in vitro ADME. The settings on record: CYP2C19, CEC substrate; read-out: Cyp IC50 2C19. Here is the method: (§1) CYP (Cytochrome P450) enzymes are the major drug metabolizing enzymes present in the liver. The inhibition of CYP enzyme activity (IC50) for each of CYP1A2, CYP2C19, CYP2C9, CYP2D6, CYP3A4(BFC) and CYP3A4(BQ) is determined for compounds, where inhibition of metabolism of a known substrate leads to a decrease in the fluorescence of the metabolized product. The fluorescence of the product is monitored as a function of compound concentration.
(§2) Compounds are dissolved in dimethyl sulfoxide to a concentration of 100 mM. These are diluted 1 μL into 82 μL of acetonitrile. […] These are then serially diluted 1:1 (160 μL to 160 μL co-factor mix) for a total of 10 points. A 10 μL aliquot of this final mixture is dispensed into 384 well assay plates and incubated for 10 minutes at 37° C. […] Assay plates are incubated at 37° C. […] The signal versus compound concentration is used to determine the IC50. The enzymes and substrates for this assay are obtained from BD Biosciences.

Another series deals with CYP2C9 (Homo sapiens, UniProt P11712). In words: CYP2C9 inhibition (fluorescent substrate). The settings on record: CYP2C9, MFC substrate; read-out: Cyp IC50 2C9. In kind it is in vitro ADME. Here is the method:
as §1, §2

B-Raf V600E, sequence (P15056 whole entry V600E): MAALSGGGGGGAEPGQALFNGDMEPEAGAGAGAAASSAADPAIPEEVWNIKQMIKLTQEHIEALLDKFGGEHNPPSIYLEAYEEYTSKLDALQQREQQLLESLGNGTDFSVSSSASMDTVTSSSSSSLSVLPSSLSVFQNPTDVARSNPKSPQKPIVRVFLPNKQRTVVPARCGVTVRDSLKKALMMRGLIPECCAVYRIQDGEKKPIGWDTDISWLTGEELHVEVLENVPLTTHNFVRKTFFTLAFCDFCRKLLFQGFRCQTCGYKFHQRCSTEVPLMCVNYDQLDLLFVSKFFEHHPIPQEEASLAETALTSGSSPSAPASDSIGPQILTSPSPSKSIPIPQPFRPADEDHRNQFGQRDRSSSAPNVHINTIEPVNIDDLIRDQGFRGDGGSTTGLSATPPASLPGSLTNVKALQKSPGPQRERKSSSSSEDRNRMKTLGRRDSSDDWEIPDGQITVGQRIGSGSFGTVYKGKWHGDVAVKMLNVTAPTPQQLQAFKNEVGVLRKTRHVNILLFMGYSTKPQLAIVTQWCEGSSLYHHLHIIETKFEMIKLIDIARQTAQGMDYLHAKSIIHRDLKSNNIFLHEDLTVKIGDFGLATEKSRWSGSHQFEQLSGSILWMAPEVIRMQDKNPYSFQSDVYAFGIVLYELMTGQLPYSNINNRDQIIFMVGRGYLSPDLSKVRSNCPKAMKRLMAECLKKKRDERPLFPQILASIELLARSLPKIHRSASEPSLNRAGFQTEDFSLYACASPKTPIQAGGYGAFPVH
CYP2C19, sequence (P33261 whole entry): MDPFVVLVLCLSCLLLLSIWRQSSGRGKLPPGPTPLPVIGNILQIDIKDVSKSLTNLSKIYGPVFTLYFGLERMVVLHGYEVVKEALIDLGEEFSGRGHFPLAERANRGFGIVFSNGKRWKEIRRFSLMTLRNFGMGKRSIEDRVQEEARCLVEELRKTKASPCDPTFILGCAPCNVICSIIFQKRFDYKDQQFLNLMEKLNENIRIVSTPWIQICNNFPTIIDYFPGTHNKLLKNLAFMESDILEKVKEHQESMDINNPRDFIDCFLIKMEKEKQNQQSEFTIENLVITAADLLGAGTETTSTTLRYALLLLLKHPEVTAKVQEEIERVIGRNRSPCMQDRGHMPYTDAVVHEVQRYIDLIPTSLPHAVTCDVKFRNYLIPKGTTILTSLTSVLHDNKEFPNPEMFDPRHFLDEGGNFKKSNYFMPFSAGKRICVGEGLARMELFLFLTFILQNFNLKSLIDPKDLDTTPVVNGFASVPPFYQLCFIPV
CYP2C9, sequence (P11712 whole entry): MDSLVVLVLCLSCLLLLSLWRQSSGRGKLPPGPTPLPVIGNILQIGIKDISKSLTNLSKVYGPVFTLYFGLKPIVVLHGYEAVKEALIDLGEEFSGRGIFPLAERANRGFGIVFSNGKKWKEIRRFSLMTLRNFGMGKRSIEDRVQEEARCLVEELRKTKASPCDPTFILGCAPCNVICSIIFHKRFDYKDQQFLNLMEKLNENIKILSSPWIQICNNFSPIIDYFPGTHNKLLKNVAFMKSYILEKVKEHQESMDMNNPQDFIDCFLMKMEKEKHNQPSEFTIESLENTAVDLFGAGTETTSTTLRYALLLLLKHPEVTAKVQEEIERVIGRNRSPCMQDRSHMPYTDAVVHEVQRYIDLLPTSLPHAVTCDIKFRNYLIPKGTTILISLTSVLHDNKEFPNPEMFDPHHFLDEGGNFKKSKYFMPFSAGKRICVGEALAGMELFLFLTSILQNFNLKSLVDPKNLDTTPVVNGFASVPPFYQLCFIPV

In turn, `CCCS(=O)(=O)Nc1ccc(F)c(C(=O)c2c[nH]c3ncc(-c4cnn(CCN5CCOCC5)c4)cc23)c1F` [P-2177, Propane-1-sulfonic acid (2,4-difluoro-3-{5-[1-(2-morpholin-4-yl-ethyl)-1H-pyrazol-4-yl]-1H-pyrrolo[2,3-b]pyridine-3-carbonyl}-phenyl)-amide] gave a 50% inhibitory concentration (IC50) at B-Raf V600E of less than 10 nM. Further, in series [1], the “turbidity threshold (L, M, H) 7.4” value is on record as “L (low solubility if the threshold concentration is <31.3 04)”; the “turbidity threshold (L, M, H) 4.5” value is recorded as “M (moderate solubility if the threshold concentration is 31.3 μM to 250 μM)”; the “turbidity threshold (L, M, H) 6.8” value is “L (low solubility if the threshold concentration is <31.3 04)”; the “turbidity threshold (L, M, H) 1.4” value is listed as “H (high solubility if the threshold concentration is >250 μM)”. The IC50 on CYP2C19 is 5 to 10 µM. For the same compound, the 50% inhibitory concentration (IC50) at CYP2C9 is less than 5 µM.
Turning to `CCCS(=O)(=O)Nc1ccc(F)c(C(=O)c2c[nH]c3ncc(-c4ccc(C(=O)NC)nc4)cc23)c1F` [P-2180, 5-{3-[2,6-Difluoro-3-(propane-1-sulfonylamino)-benzoyl]-1H-pyrrolo[2,3-b]pyridin-5-yl}-pyridine-2-carboxylic acid methylamide], the IC50 against B-Raf V600E was less than 10 nM. In series [1], the “turbidity threshold (L, M, H) 7.4” value is “L (low solubility if the threshold concentration is <31.3 04)”; the “turbidity threshold (L, M, H) 4.5” value is recorded as “L (low solubility if the threshold concentration is <31.3 04)”; the “turbidity threshold (L, M, H) 6.8” value is “L (low solubility if the threshold concentration is <31.3 04)”; the “turbidity threshold (L, M, H) 1.4” value was “L (low solubility if the threshold concentration is <31.3 04)”. The IC50 on CYP2C19 fell in the range of 5 to 10 µM. In addition, on CYP2C9, the IC50 was less than 5 µM.
On B-Raf V600E, `CCCS(=O)(=O)Nc1ccc(F)c(C(=O)c2c[nH]c3ncc(-c4ccc(C(=O)NC5CC5)nc4)cc23)c1F` [P-2181, 5-{3-[2,6-Difluoro-3-(propane-1-sulfonylamino)-benzoyl]-1H-pyrrolo[2,3-b]pyridin-5-yl}-pyridine-2-carboxylic acid cyclopropylamide] registered a half-maximal inhibitory concentration (IC50) of less than 10 nM. Also, in series [1], the “turbidity threshold (L, M, H) 7.4” value was “L (low solubility if the threshold concentration is <31.3 04)”; the “turbidity threshold (L, M, H) 4.5” value is “L (low solubility if the threshold concentration is <31.3 04)”; the “turbidity threshold (L, M, H) 6.8” value was “L (low solubility if the threshold concentration is <31.3 04)”; the “turbidity threshold (L, M, H) 1.4” value is given as “L (low solubility if the threshold concentration is <31.3 04)”. The half-inhibitory concentration (IC50) at CYP2C19 was greater than 10 µM. In addition, the half-maximal inhibitory concentration (IC50) on CYP2C9 is less than 5 µM.
As to `CCCS(=O)(=O)Nc1ccc(F)c(C(=O)c2c[nH]c3ncc(-c4ccc(S(C)(=O)=O)cc4)cc23)c1F` [P-2183, Propane-1-sulfonic acid {2,4-difluoro-3-[5-(4-methanesulfonyl-phenyl)-1H-pyrrolo[2,3-b]pyridine-3-carbonyl]-phenyl}-amide], the IC50 against B-Raf V600E was less than 10 nM. In series [1], the “turbidity threshold (L, M, H) 7.4” value was “L (low solubility if the threshold concentration is <31.3 04)”; the “turbidity threshold (L, M, H) 4.5” value was “L (low solubility if the threshold concentration is <31.3 04)”; the “turbidity threshold (L, M, H) 6.8” value was “L (low solubility if the threshold concentration is <31.3 04)”; the “turbidity threshold (L, M, H) 1.4” value was “L (low solubility if the threshold concentration is <31.3 04)”. Also, the IC50 on CYP2C19 lay within 5 to 10 µM. Besides, at CYP2C9, the concentration for half-maximal inhibition (IC50) is 5 to 10 µM.
At B-Raf V600E, `CCCS(=O)(=O)Nc1ccc(F)c(C(=O)c2c[nH]c3ncc(-c4ccc(OC)nc4OC)cc23)c1F` [P-2184, Propane-1-sulfonic acid {3-[5-(2,6-dimethoxy-pyridin-3-yl)-1H-pyrrolo[2,3-b]pyridine-3-carbonyl]-2,4-difluoro-phenyl}-amide] gave an IC50 of less than 100 nM. In series [1], the “turbidity threshold (L, M, H) 7.4” value is given as “L (low solubility if the threshold concentration is <31.3 04)”; the “turbidity threshold (L, M, H) 4.5” value is reported as “L (low solubility if the threshold concentration is <31.3 04)”; the “turbidity threshold (L, M, H) 6.8” value is “L (low solubility if the threshold concentration is <31.3 04)”; the “turbidity threshold (L, M, H) 1.4” value is on record as “L (low solubility if the threshold concentration is <31.3 04)”. Further, on CYP2C19, the 50% inhibitory concentration (IC50) was greater than 10 µM. The IC50 on CYP2C9 lay in the range of 5 to 10 µM.
`CCCS(=O)(=O)Nc1ccc(F)c(C(=O)c2c[nH]c3ncc(-c4ccc(SC)nc4)cc23)c1F` [P-2187, Propane-1-sulfonic acid {2,4-difluoro-3-[5-(6-methylsulfanyl-pyridin-3-yl)-1H-pyrrolo[2,3-b]pyridine-3-carbonyl]-phenyl}-amide]: the results for the 50% inhibitory concentration (IC50) on B-Raf V600E, on CYP2C19 and on CYP2C9 were less than 10 nM, greater than 10 µM and greater than 10 µM, respectively.
Turning to `CCCS(=O)(=O)Nc1ccc(F)c(C(=O)c2c[nH]c3ncc(-c4cncc(S(C)(=O)=O)c4)cc23)c1F` [P-2188, Propane-1-sulfonic acid {2,4-difluoro-3-[5-(5-methanesulfonyl-pyridin-3-yl)-1H-pyrrolo[2,3-b]pyridine-3-carbonyl]-phenyl}-amide], the half-maximal inhibitory concentration (IC50) at B-Raf V600E was less than 10 nM. Also, in series [1], the “turbidity threshold (L, M, H) 7.4” value is recorded as “M (moderate solubility if the threshold concentration is 31.3 μM to 250 μM)”; the “turbidity threshold (L, M, H) 4.5” value is “L (low solubility if the threshold concentration is <31.3 04)”; the “turbidity threshold (L, M, H) 6.8” value is listed as “L (low solubility if the threshold concentration is <31.3 04)”; the “turbidity threshold (L, M, H) 1.4” value is “M (moderate solubility if the threshold concentration is 31.3 μM to 250 μM)”. The IC50 on CYP2C19 was greater than 10 µM. Besides, on CYP2C9, the half-maximal inhibitory concentration (IC50) fell in the range of 5 to 10 µM.
In turn, `CCCS(=O)(=O)Nc1ccc(F)c(C(=O)c2c[nH]c3ncc(-c4cnn(Cc5ccccc5)c4)cc23)c1F` [P-2190, Propane-1-sulfonic acid {3-[5-(1-benzyl-1H-pyrazol-4-yl)-1H-pyrrolo[2,3-b]pyridine-3-carbonyl]-2,4-difluoro-phenyl}-amide] had a half-inhibitory concentration (IC50) against B-Raf V600E of less than 10 nM. Also, in series [1], the “turbidity threshold (L, M, H) 7.4” value is recorded as “L (low solubility if the threshold concentration is <31.3 04)”; the “turbidity threshold (L, M, H) 4.5” value is listed as “L (low solubility if the threshold concentration is <31.3 04)”; the “turbidity threshold (L, M, H) 6.8” value was “L (low solubility if the threshold concentration is <31.3 04)”; the “turbidity threshold (L, M, H) 1.4” value is on record as “L (low solubility if the threshold concentration is <31.3 04)”. Further, the IC50 at CYP2C19 lay within 5 to 10 µM. Also, the IC50 at CYP2C9 is less than 5 µM.
As for `CCCS(=O)(=O)Nc1ccc(F)c(C(=O)c2c[nH]c3ncc(-c4ccnc(F)c4)cc23)c1F` [P-2192, Propane-1-sulfonic acid {2,4-difluoro-3-[5-(2-fluoro-pyridin-4-yl)-1H-pyrrolo[2,3-b]pyridine-3-carbonyl]-phenyl}-amide], the IC50 at B-Raf V600E was less than 10 nM. In series [1], the “turbidity threshold (L, M, H) 7.4” value was “L (low solubility if the threshold concentration is <31.3 04)”; the “turbidity threshold (L, M, H) 4.5” value is “L (low solubility if the threshold concentration is <31.3 04)”; the “turbidity threshold (L, M, H) 6.8” value is “L (low solubility if the threshold concentration is <31.3 04)”; the “turbidity threshold (L, M, H) 1.4” value was “L (low solubility if the threshold concentration is <31.3 04)”. Also, at CYP2C19, the IC50 was greater than 10 µM. Also, the 50% inhibitory concentration (IC50) on CYP2C9 lay in the range of 5 to 10 µM.

(Values after patent US8198273B2, “Compounds and methods for kinase modulation, and indications therefor” (Plexxikon Inc., priority 2009, dated 2012).)
